Data set [1] concerns high fructose fed (HFF) rats. Nature of the data set: Example 2: effect of lipoxygenase inhibitors on serum metabolic components of HFF rats. The data set is classed as in vivo, Sprague-Dawley rats. The conditions noted are these: for Cholesterol, Day 15 / Cholesterol, Day 19: serum total cholesterol; for Cholesterol, Day 19 / Glucose, Day 19 / FFA, Day 19 / Insulin, Day 19 / TG, Day 19: Day 19 after 4 days BID oral gavage (NDGA 250 mg/kg, BW 755c 100 mg/kg); for Glucose, Day 19: 3 hours after last dose. How it is done:
Male rats were initially divided into HFF or chow (control) groups and maintained for 14 days on the prescribed diet. […] On days 15-19 all groups were treated by oral gavage twice daily with either drug or vehicle. On days 15 and 19 serum was collected for analysis. On day 20, the groups were subdivided to receive either LPS or vehicle (saline). Post-LPS treatment, the animals were sacrificed and their livers were isolated for analysis.
Male Sprague-Dawley rats weighing approximately 180-200 g first maintained on a rat chow diet and then were divided into four groups, three of which were switched to a high-fructose diet (Harlan Teklad, Madison, Wis.) that provided 60% of total calories as fructose (Day 1). On day 15 of treatment, the rats were fasted for 4 hours and tail vein blood was collected for baseline measurements of serum TG, glucose, insulin and free fatty acids (FFA) as previously described (Gowri et al., Am. J. Hypertension, 12: 744-746 (1999)). […] The chow group (diet control) was treated with vehicle. During the treatment regimen the animals were maintained on high-fructose diet. […] On day 20, four animals in each group were injected (iv) with 0.5 mg/kg BW Salmonella enterifdis endotoxin (lipopolysaccharide, LPS) or normal saline under light anaesthesia. After 2 hours, serum was collected for corticosterone measurement, as described previously (Kraemer et al., Endocrinology, 143: 801-806 (2002)), and then the animals were sacrificed and tissues removed, snap-frozen in liquid nitrogen and stored at −80° C. until analyzed. The local committee on animal care approved all animal protocols.
Statistical analysis were performed by either paired or unpaired t-test using GraphPad Prism version 3.00 for Windows, GraphPad Software, San Diego Calif. USA. A difference between groups was considered significant if P was less than 0.05. Normalized Western Blot data were obtained as a ratio of the units measured for phosphorylated protein divided by the units measured for total protein. Statistical analyses were performed on the normalized data.

The subject of data set [2] is high-fructose diet fed rats. Nature of the data set: Example 1: in vivo efficacy of 5-LO inhibitors in diet-induced model of hypertriglyceridemia and hypertension (serum TG, FFA, insulin, glucose, body weight). Particulars: oral gavage twice a day for 5 days; for effect on serum triglycerides: NDGA 250 mg/kg (p=0.0004), BW 755c 100 mg/kg (p=0.0002), day 0 vs day 5, FIG. 1; for effect on serum insulin levels: NDGA 250 mg/kg (p=0.003); for effect on serum insulin levels / effect on increase in serum free fatty acids during treatment / effect on serum glucose: BW 755c 100 mg/kg; for effect on increase in serum free fatty acids during treatment / effect on serum glucose: NDGA 250 mg/kg. Also noted: species or system Sprague-Dawley rats. The text has this: Male Sprague-Dawley rats weighting 175-200 g were used in these studies. […]. Rats were first maintained on a chow diet for ˜1 wk and then were divided into four groups (7 or 8 animals in each group). Three groups were switched to a high-fructose diet (Harlan Teklad, Madison, Wis.) that provided 60% of total calories as fructose. The fourth group was maintained on normal chow to serve as an overall control group. After 14 days on the high-fructose diet, the degree of hypertriglyceridemia was evaluated by determining the total plasma TG levels. On day 0 of treatment, tail vein blood was collected for baseline measurements of serum TG, glucose, insulin, and FFA. […] All animals were dosed two times a day for 5 days (days 1-5), delivered by oral gavage. On day 5 of treatment (approximately 3 hours after the oral dose) vein blood was collected for measurements of serum TG, glucose, insulin, and FFA. During the treatment period, rats were maintained on their prescribed diets. Body weights were measured on day 0 and day 5.
Serum samples were used to measure TG and glucose concentrations by enzymatic […] methods using Sigma Diagnostic kits (St. Louis, Mo.). Serum insulin concentrations were by RIA using a Linco Rat Insulin RIA kit (St. Charles, Mo.). FFA concentrations were measured using the nonesterified fatty acid (NEFA) C kit by the ACS-ACOD method following the instructions of the manufacturer.
Data was statistically analyzed using paired t-tests to determine significance.

For data set [3] the following is noted: background statement; cited from earlier work.
Data set [4] relates to diabetic rat model. The conditions noted are these: Babu et al. 1997; cited from earlier work.
Data set [5] relates to in vivo animal models. Particulars: Maya et al. 2000; Scribner et al. 2000; cited from earlier work.
Setting [6] is: Day 15 = baseline before drug treatment, mean ± S.E., n = 7-8.
The mark [7] stands for this setting: serum, Day 15 = baseline before drug treatment, mean ± S.E., n = 7-8.

In the case of `NC1=NN(c2cccc(C(F)(F)F)c2)CC1` [BW 755c, 4,5-dihydro-1-(3-(trifluoromethyl)phenyl)-1H-pyrazol-3-amine], the “effect on serum total cholesterol” value in data set [1] (four days BID oral treatment) is reported as “Neither of these effects was observed”. Further, the “Cholesterol, Day 15” value in data set [1] (setting [6]) is 107.6 ± 3 mg/dL. In addition, in data set [1] (mean ± S.E., n = 7-8), the “Cholesterol, Day 19” value was 104.5 ± 2 mg/dL. In data set [1] (serum, Day 15 = baseline before drug treatment, 4 h fasted, mean ± S.E., n = 7-8), the “Glucose, Day 15” value came out at 119 ± 7 mg/dL. In data set [1] (setting [7]), the “FFA, Day 15” value stood at 554 ± 71 μEq/L; the “Insulin, Day 15” value is reported as 1.6 ± 0.3 ng/mL; the “TG, Day 15” value was 296 ± 31 mg/dL. In addition, in data set [1] (serum, mean ± S.E., n = 7-8), the “Glucose, Day 19” value is 114 ± 7 mg/dL; the “FFA, Day 19” value worked out at 504 ± 42 μEq/L; the “Insulin, Day 19” value is 1.7 ± 0.3 ng/mL; the “TG, Day 19” value was 112 ± 20(^4) mg/dL. Besides, in data set [2], the “effect on serum triglycerides” value was “significantly reduced”, the “effect on serum insulin levels” value was “no effect”, the “effect on increase in serum free fatty acids during treatment” value is “ameliorated” and the “effect on serum glucose” value is reported as “no effect”.

In the case of `COc1cc(/C=C/C(=O)CC(=O)/C=C/c2ccc(O)c(OC)c2)ccc1O` [Curcumin], the bioavailability entry in data set [3] is given as “poorly bioavailable”. Moreover, the “properties in in vivo diabetic rat model” value in data set [4] is “hypolidemic properties”.

`C[C@H](Cc1ccc(O)c(O)c1)[C@@H](C)Cc1ccc(O)c(O)c1` [NDGA, nordihydroguaiaretic acid]: the “properties in in vivo animal models” value in data set [5] is “hypolipidemic and antihypertensive properties”. Besides, in data set [1] (four days BID oral treatment), the “effect on fasting blood glucose” value is “without significantly altering”, the “effect on fasting serum insulin” value is reported as “significantly decreased” and the “effect on serum total cholesterol” value is “significantly reduced”. In data set [1] (setting [6]), the “Cholesterol, Day 15” value was found to be 118.6 ± 3 mg/dL. Besides, the “Cholesterol, Day 19” value in data set [1] (mean ± S.E., n = 7-8) is on record as 98.3 ± 4(^7) mg/dL. Besides, in data set [1] (setting [7]), the “FFA, Day 15” value is 599 ± 51 μEq/L; the “Insulin, Day 15” value is listed as 2.3 ± 0.3 ng/mL; the “TG, Day 15” value is listed as 384 ± 48 mg/dL. In addition, in data set [1] (serum, mean ± S.E., n = 7-8), the “Glucose, Day 19” value is given as 122 ± 8 mg/dL; the “FFA, Day 19” value amounted to 611 ± 101 μEq/L; the “Insulin, Day 19” value is on record as 0.9 ± 0.1(′) ng/mL; the “TG, Day 19” value was found to be 97 ± 6 mg·s/dL. Moreover, in data set [3], the bioavailability entry was “poorly bioavailable”. Also, in data set [2], the “effect on serum triglycerides” value is reported as “significantly reduced”, the “effect on serum insulin levels” value is recorded as “significantly lowered”, the “effect on increase in serum free fatty acids during treatment” value was “ameliorated” and the “effect on serum glucose” value is reported as “without increasing serum glucose”.
